{"source": "patent US20210144999A1", "about": "“COMPOSITIONS COMPRISING HYDROXYCINNAMIC ACID AND RELATED CONJUGATES, ANALOGUES AND DERIVATIVES, AND METHODS OF USE THEREOF” (YEDA RESEARCH AND DEVELOPMENT CO. LTD., priority 2017, published 2021)", "key": {"R. solani": {"system": "R. solani", "assay": "Bioprotection of Arabidopsis thaliana by B. subtilis against rhyzoctonia solani", "format": "in vivo", "settings": "5 μM purified RID with 1000 B. subtilis cells, 100 or 10,000 pathogen cells", "description": "(§1) FIG. 19: Purified RID improved the bioprotection versus pseudomonas syringae and rhyzoctonia solani achieved by Bacillus. We used Bacillus strain B. subtilis 3610 (B.S). The bacterial strain was maintained on LB plates. 1000 cells either applied or non-applied with 5 μM of purified RID were added to Arabidopsis thaliana plants grown on MS solid media. Plants were incubated at 26±2° C. for 5 days. P. syringae (P.S) or R. solani (R.S) were grown in TSB at 37° C. to OD600=0.2 to 0.3 (3*10^8 cells per ml) and diluted to 100 cells, or 10,000 cells retrospectively (w/v) into the plant media. Plants were further incubated at 28±2° C. for 5 days and the growth of the pathogen was measured and compared with the control. Three replications were maintained for each assay. SD represents the average of three independent experiments.\n(§2) Bacillus strain B. subtilis 3610 (B.S) was maintained on LB plates. 1000 cells with or without 5 μM of purified RID were added to Arabidopsis thaliana plants grown on MS solid media. Plants were incubated at 26±2° C. for 5 days. P. syringae (P.S) or R. solani (R.S) were grown in TSB at 37° C. to OD600=0.2 to 0.3 (3*10^8 cells per ml) and diluted to 100 cells, or 10,000 cells retrospectively (w/v) into the plant media. Plants were further incubated at 28±2° C. for 5 days and the growth of the pathogen was measured and compared with the control. […]"}, "[1]": {"system": "B. subtilis 3610 Δ yclQ mutant biofilms", "assay": "Biofilm (pellicle) development of B. subtilis strain defective in iron uptake", "format": "cell-based", "settings": "Δ yclQ mutant pellicles with or without purified RID", "text": "Biofilms grown in the presence and absence of RID in B. subtilis 3610 and its derivate (Δ yclQ) mutant in iron uptake pathways (Zawadzka et al., 2009). Untreated pellicles are shown in the top panel. Pellicles applied with purified RID are shown below."}, "B. subtilis biofilms": {"system": "B. subtilis biofilms", "assay": "B. subtilis biofilm stability / maintenance in vitro", "format": "cell-based", "settings": "in vitro and in vivo, specific environmental conditions such as iron starvation", "description": "Shown are biofilms of treated and untreated B. subtilis biofilms.\nStrains and Media All experiments were performed with B. subtilis NCBI3610 and its derivatives. Assays were carried out with the biofilm-inducing medium, MSgg: 5 mM potassium phosphate, 100 mM MOPS (pH 7), 2 mM MgCl2, 50 μM MnCl2, 1 μM ZnCl2, 2 μM thiamine, 0.5% glycerol, 0.5% glutamate, 50 μg/ml tryptophan, 50 μg/mlphenylalanine 50 μg/ml threonine, 700 μM CaCl2, and 50 μM (for growth assays) or 125 μM (for biofilm assays) FeCl3^1. A solid MSgg medium was obtained by adding Bacto agar (Difco) to a final concentration of 1.5%. When necessary, selective medium was prepared with LB-agar or LB broth, supplemented with: 100 μg/ml ampicillin (amp) (AG Scientific), or 10 μg/ml kanamycin (kan) (AG Scientific), or 10 μg/ml chloramphenicol (cam) (Amresco), or 10 μg/ml tetracycline (tet) (Amresco), or 100 μg/ml spectinomycin (spec) (Tivan Biotech), or 1 μg/mlerythromycin (erm) (Amresco)+25 μg/ml lincomycin (linc) (Sigma Aldrich)."}, "P. syringae": {"system": "P. syringae", "assay": "Bioprotection of Arabidopsis thaliana by B. subtilis against pseudomonas syringae", "format": "in vivo", "settings": "5 μM purified RID with 1000 B. subtilis cells, 100 or 10,000 pathogen cells", "description": "as §1, §2"}, "rhyzoctonia solani": {"system": "rhyzoctonia solani", "assay": "Bioprotection of tomato plants by B. subtilis against rhyzoctonia solani", "format": "in vivo", "settings": "RID with B. subtilis", "description": "ISR assay. Arabidopsis thaliana or Microtome tomato seedlings were grown on NITCH-agar for 10 days. Then each seedling was transferred to separate solid MSgg plate. In order to test the effects of either treated or untreated B. subtilis on the Induced systemic resistance (ISR), bacterial cells were inoculated aside to the root (as mentioned above) and incubated at 23° C. for five days. Alternatively and as indicated in the corresponding figure legend, we inoculated the bacterial cells directly on the root. Then the first leaf was infected by puncturing by needle and inoculating with the necrosis-causing pathogens, Pseudomonas syringae DC3000 or rhyzoctonia solani (Kuhn). Five days after infection with P. syringae, plants were further analyzed.\nTomato infections (FIGS. 18A, 18B and 19)."}, "[2]": {"system": "P. syringae strain DC3000 pv tomato", "assay": "Bioprotection of tomato plants by B. subtilis against pseudomonas syringae", "format": "in vivo", "settings": "5 μM RID with 1000 B. subtilis cells; 100 or 10,000 pathogen cells", "description": "FIGS. 18A-18B: Purified RID improved the bioprotection versus pseudomonas syringae achieved by Bacillus. Bacillus strain B. subtilis 3610 (B.S) was used. The bacterial strain was maintained on LB plates. 1000 cells either applied or non-applied with 5 μM of RID were added to tomato plants grown on agrophonic beads. Plants were incubated at 28±2° C. for 15 days. P. syringae strain DC3000 pv tomato (P.S) culture was grown in LB at 37° C. to OD600=0.2 to 0.3 (3*10^8 cells per ml) and diluted to 100 cells (FIG. 18A) 10,000 (FIG. 18B) cells retrospectively (w/v) into the plant media. Plants were further incubated at 28±2° C. for 10 days and the growth of the pathogen was measured and compared with the control. Three replications were maintained for each assay. SD represents the average of three independent experiments.\nBacillus strain B. subtilis 3610 (B.S) was maintained on LB plates. 1000 cells of B.S. with or without the addition of 5 μM of RID were added to tomato plants grown on agrophonic beads. Plants were incubated at 28±2° C. for 15 days.\nP. syringae strain DC3000 pv tomato (P.S) was grown in LB at 37° C. to OD600=0.2 to 0.3 (3*10^8 cells per ml) and diluted to 10,000 cells retrospectively (w/v) into the plant media. Plants were further incubated at 28±2° C. for 10 days and the growth ofthe pathogen was measured and compared with the control. […]"}}, "note": "“Also recorded” adds a separate entry of the source.", "data": [{"smiles": "NCCCCNC(=O)/C=C/c1ccc(O)c(O)c1", "note": "[RID, caffeoyl putrescine]", "values": [{"measurement": "B. subtilis-mediated protection of Arabidopsis (Brassicaceae) from rhyzoctonia solani", "setting": "R. solani", "result": "improved significantly protection achieved by Bacillus subtilis"}, {"measurement": "B. subtilis-mediated protection of Arabidopsis (Brassicaceae) from rhyzoctonia solani", "setting": "R. solani; listed as purified RID", "result": "significantly improve the protection of Brassicaceae plants"}, {"measurement": "biofilm development of iron-uptake defective B. subtilis", "setting": "[1]", "result": "compensated for the biofilm defect; also recorded: can promote the development of biofilms"}, {"measurement": "disassembly of B. subtilis biofilms", "setting": "B. subtilis biofilms", "result": "blocks the disassembly of B. subtilis biofilms in vitro and in vivo"}, {"measurement": "B. subtilis-mediated protection of Arabidopsis (Brassicaceae) from pseudomonas syringae", "setting": "P. syringae", "result": "improved significantly protection achieved by Bacillus subtilis"}, {"measurement": "B. subtilis-mediated protection of Arabidopsis (Brassicaceae) from pseudomonas syringae", "setting": "P. syringae; listed as purified RID", "result": "significantly improve the protection of Brassicaceae plants"}, {"measurement": "B. subtilis-mediated protection of tomato plants from rhyzoctonia solani", "setting": "rhyzoctonia solani", "result": "enhanced the protective effects of Bacillus subtilis on tomato plant mortality"}, {"measurement": "B. subtilis-mediated protection of tomato plants from pseudomonas syringae pv. Tomato", "setting": "[2]", "result": "enhanced the protective effects of Bacillus subtilis on tomato plant mortality; also recorded: improved significantly the duration of protection achieved by Bacillus subtilis and the resistance to high inoculum of infection"}]}]}
